Where two headings read alike, the source gives them in different places.
Target: T1, human FAAH (Homo sapiens, UniProt O00519)
T1 construct: host or cells: COS-7 cells, transient transfection (FuGENE 6); 13,000 g membrane fraction solubilised in 1% Triton X-100
T1 sequence (O00519 1-579): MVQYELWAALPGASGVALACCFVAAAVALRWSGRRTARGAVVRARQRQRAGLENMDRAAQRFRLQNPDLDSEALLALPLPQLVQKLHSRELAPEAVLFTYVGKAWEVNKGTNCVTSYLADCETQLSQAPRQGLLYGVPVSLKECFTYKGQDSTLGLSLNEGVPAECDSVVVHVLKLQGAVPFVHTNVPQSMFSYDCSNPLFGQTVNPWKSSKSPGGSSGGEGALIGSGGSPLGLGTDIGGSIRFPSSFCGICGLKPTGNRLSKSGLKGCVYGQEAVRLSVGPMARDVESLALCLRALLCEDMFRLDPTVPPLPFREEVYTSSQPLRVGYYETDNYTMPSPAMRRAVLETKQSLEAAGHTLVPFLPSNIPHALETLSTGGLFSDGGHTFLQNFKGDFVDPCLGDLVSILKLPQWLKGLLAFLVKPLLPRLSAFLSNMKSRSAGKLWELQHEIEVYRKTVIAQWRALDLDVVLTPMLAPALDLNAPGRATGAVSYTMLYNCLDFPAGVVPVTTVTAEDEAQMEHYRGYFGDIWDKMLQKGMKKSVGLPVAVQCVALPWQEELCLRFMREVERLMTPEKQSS
Assay: Human FAAH biochemical inhibition assay (AMC arachidonoyl amide fluorescence)
Method in brief: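 Human FAAH from solubilized membranes of transiently transfected COS-7 cells, 0.1 mg/mL in 50 mM Hepes pH 7.5, 1 mM EDTA, 0.2% Triton X-100, preincubated 30 min at room temperature with 3-fold serially diluted inhibitor. Hydrolysis of AMC arachidonoyl amide read by fluorescence (ex 355/em 460 nm). Data fitted to single-site competitive inhibition with Km fixed at 9 μM.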

[1] = class given in each Example, read-out: Activity (Ki, inhibition of human FAAH)
[2] = Table A, read-out: Activity (Ki) of other boronic acids tested, Table A

SMILES | Ki [1] | Ki [2]
OB(O)c1ccc(-c2nnc(CC3CCCC3)o2)cc1 [Compound 35] | ≤ 10 nM | 
OB(O)c1ccc(-c2nnc(-c3ccc4c(c3)OCO4)o2)cc1 [Compound 45] | ≤ 10 nM | 
CCCc1nnc(-c2ccccc2B(O)O)o1 [Compound 13] | > 1000 nM | 
O=Cc1cc(OCCc2ccccc2)ccc1B(O)O [Compound 98] | ≤ 10 nM | 
OB(O)c1ccc(-n2nncc2-c2ccccc2)cc1F [Compound 142] | 100 to 1000 nM | 
O=C(NCCCO)c1ccc(B(O)O)cc1 |  | > 1000 nM
OB(O)c1ccc(-c2nc(CCc3ccccc3)c(-c3ccccc3)s2)cc1 [Compound 8] | > 1000 nM | 
OB(O)c1ccc(-c2nnc(CCC(F)(F)C(F)(F)F)o2)cc1 [Compound 20] | ≤ 10 nM | 
CCCCCc1nnc(-c2ccc(B(O)O)cc2Cl)o1 [Compound 29] | ≤ 10 nM | 
CCCc1nnc(-c2ccc(B(O)O)cc2)o1 [Compound 39] | ≤ 10 nM | 
OB(O)c1ccc(-c2nnc(Cc3ccsc3)o2)cc1 [Compound 59] | ≤ 10 nM | 
Cn1cncc1-c1nnc(-c2ccc(B(O)O)cc2)o1 [Compound 54] | 10 to 100 nM | 
OB(O)c1ccc(-c2cn(Cc3ccccc3)nn2)cc1F [Compound 137] | 10 to 100 nM | 
OB(O)c1ccc(-c2nnc(-c3ccccc3)o2)c(Cl)c1 [Compound 68] | ≤ 10 nM | 
OB(O)c1ccc(-c2cc(-c3cccnc3)on2)cc1 [Compound 166] | ≤ 10 nM | 
O=S(=O)(c1ccc(B(O)O)cc1)n1cccc1 |  | 10 to 100 nM
OB(O)c1cccc(-c2nnc(-c3ccccc3)o2)c1 [Compound 63] | 100 to 1000 nM | 
OB(O)c1ccc(-c2nnc(-c3cccnc3)s2)cc1 [Compound 49] | ≤ 10 nM | 
CN(C)C(=O)/C=C/c1cc(OCCc2ccccc2)ccc1B(O)O [Compound 103] | 10 to 100 nM | 
OB(O)c1ccc(-c2nnc(-c3ccccc3)o2)s1 [Compound 56] | 10 to 100 nM | 
OB(O)c1ccc(-c2nnc(-c3cccc4c3OCO4)o2)cc1 [Compound 53] | ≤ 10 nM | 
Cc1nc(Cc2nnc(-c3ccc(B(O)O)cc3)o2)cs1 [Compound 23] | 10 to 100 nM | 
OB(O)c1ccc(-c2nnc(-c3cccnc3)o2)cc1 [Compound 21] | ≤ 10 nM | 

SMILES | Ki [1] | Ki [2]
CCCCCc1nnc(-c2ccc(B(O)O)c(F)c2)o1 [Compound 26] | ≤ 10 nM | 
OB(O)c1ccc(-c2nnc(-c3ccccc3)o2)nc1 [Compound 12] | 10 to 100 nM | 
COCCNC(=O)c1ccc(B(O)O)cc1 |  | 100 to 1000 nM
OB(O)c1ccc(-c2nnc(-c3cccc(C(F)(F)F)c3)o2)cc1 [Compound 47] | ≤ 10 nM | 
Cc1nnc(-c2cc(C(F)(F)F)ccc2B(O)O)o1 [Compound 11] | 100 to 1000 nM | 
OB(O)c1ccc(-c2nnc(CCc3ccccc3)o2)cc1 [Compound 57] | ≤ 10 nM | 
OB(O)c1ccc(-c2cn(-c3ccccc3)nn2)cc1 [Compound 130] | 10 to 100 nM | 
Cc1nnc(-c2cc(OCCc3ccccc3)ccc2B(O)O)o1 [Compound 19] | ≤ 10 nM | 
OB(O)c1ccc(-c2cn(-c3ccccc3)nn2)cc1F [Compound 134] | 10 to 100 nM | 
OB(O)c1ccc(-c2cnnn2Cc2ccccc2)cc1F [Compound 138] | 100 to 1000 nM | 
CC(C)(C)OC(=O)NCc1nnc(-c2ccc(B(O)O)cc2)o1 [Compound 83] | 10 to 100 nM | 
OB(O)c1ccc(-c2nnc(-c3cncc(F)c3)o2)cc1 [Compound 41] | 10 to 100 nM | 
COC(=O)NCCc1nnc(-c2ccc(B(O)O)cc2)o1 [Compound 86] | 10 to 100 nM | 
CCCc1nnc(-c2ccc(F)cc2B(O)O)o1 [Compound 22] | > 1000 nM | 
OB(O)c1ccc(-c2nnc(-c3ccccc3)s2)cc1 [Compound 62] | ≤ 10 nM | 
CCCCCC1(C)CC(c2ccc(B(O)O)cc2)=NO1 (stereo not shown) [Compound 162] | ≤ 10 nM | 
COC(=O)C1CC(Cc2ccccc2)ON1Cc1ccc(B(O)O)c(F)c1 (stereo not shown) [Compound 148] | 10 to 100 nM | 
OB(O)c1ccc(-c2nnc(CCC3CCCC3)o2)cc1 [Compound 33] | ≤ 10 nM | 
COC(=O)/C=C/c1ccsc1B(O)O [Compound 101] | 100 to 1000 nM | 
Cc1nc(CC(=O)N/N=C/c2ccccc2B(O)O)cs1 [Compound 123] | > 1000 nM | 
OB(O)c1ccc(-c2nnc(-c3cccc4c3OCCO4)o2)cc1 [Compound 43] | ≤ 10 nM | 
OB(O)c1ccc(-c2nnc(-c3cccc4c3OCO4)s2)cc1 [Compound 50] | ≤ 10 nM | 

The next lines start with the values.

Ki [1] | Ki [2] | SMILES
10 to 100 nM |  | CCCc1nnc(-c2cc(Oc3cccnc3)ccc2B(O)O)o1 [Compound 296]
100 to 1000 nM |  | CC(C)Cn1cc(B(O)O)cn1 [Compound 220]
≤ 10 nM |  | OB(O)c1ccc2nc(Oc3ccccc3)ccc2c1 [Compound 187]
> 1000 nM |  | OB1c2sccc2C=NN1Cc1ccccc1 [Compound 256]
≤ 10 nM |  | CN(CCc1ccc(B(O)O)cc1)S(=O)(=O)c1ccccc1 [Compound 237]
≤ 10 nM |  | OB(O)c1ccc2oc(CCc3ccccc3)nc2c1 [Compound 242]
≤ 10 nM |  | OB(O)c1ccc2cc(Oc3cnccn3)ccc2c1 [Compound 186]
10 to 100 nM |  | O=C1CC(c2nc3ccc(B(O)O)cc3o2)CN1Cc1ccccc1 (stereo not shown) [Compound 249]
≤ 10 nM |  | OB(O)c1ccc2nc(Oc3ccccc3)sc2c1 [Compound 214]
10 to 100 nM |  | CC(C)(C)OC(=O)N1CCN(c2ccc(B(O)O)cc2)CC1 [Compound 318]
≤ 10 nM |  | OB(O)c1ccc([C@H]2OC[C@@H](c3ccccc3)CO2)cc1F [Compound 174]
> 1000 nM |  | CCCc1nnc(-c2ccccc2B(O)O)s1 [Compound 266]
≤ 10 nM |  | O=[N+]([O-])c1cccc(Oc2ccc3cc(B(O)O)ccc3n2)c1 [Compound 195]
> 1000 nM |  | CCCc1nnc(-c2c(F)cccc2B(O)O)o1 [Compound 262]
10 to 100 nM |  | COc1ccc2cc(-c3ccc(B(O)O)cc3)ccc2c1 [Compound 228]
≤ 10 nM |  | OB(O)c1ccc2nc(CCc3ccccc3)sc2c1 [Compound 278]
10 to 100 nM |  | OB(O)c1ccc2nc(COc3ccccc3)ccc2c1 [Compound 221]
> 1000 nM |  | CCCc1nnc(-c2cc(OC)ccc2B(O)O)o1 [Compound 260]
≤ 10 nM |  | OB(O)c1ccc2cc(CCc3ccccc3)oc2c1 [Compound 293]
> 1000 nM |  | OB1c2cc3c(cc2C=NN1Cc1ccccc1)OCO3 [Compound 254]

Ki [1] | Ki [2] | SMILES
> 1000 nM |  | OB(O)c1ccccc1-c1nnc(-c2ccco2)o1 [Compound 264]
100 to 1000 nM |  | CCCN1CCC(Cc2nc3ccc(B(O)O)cc3o2)CC1 [Compound 303]
> 1000 nM |  | COc1ccc2c(c1)B(O)N(Cc1ccccc1)N=C2 [Compound 255]
100 to 1000 nM |  | OB(O)c1ccc(COc2ccc(B(O)O)cc2)cc1 [Compound 325]
≤ 10 nM |  | CC(C)(C)OC(=O)N1CCC(c2ccc(B(O)O)cc2)CC1 [Compound 233]
10 to 100 nM |  | O=C(CCc1nc2ccc(B(O)O)cc2o1)N1CCCCC1 [Compound 247]
> 1000 nM |  | CC(C)CN1CCC(Cc2nc3ccc(B(O)O)cc3o2)CC1 [Compound 304]
≤ 10 nM |  | CCCc1nc2ccc(B(O)O)cc2o1 [Compound 244]
≤ 10 nM |  | OB(O)c1ccc2cn(Cc3ccccc3)nc2c1 [Compound 217]
> 1000 nM |  | CCCc1cc(-c2ccccc2B(O)O)no1 [Compound 168]
≤ 10 nM |  | OB(O)c1ccc2cc(Oc3ncccn3)ccc2c1 [Compound 208]
> 1000 nM |  | CN(C)c1nnc(-c2ccccc2B(O)O)o1 [Compound 282]
≤ 10 nM |  | CCCc1noc(-c2ccc(B(O)O)cc2)n1 [Compound 272]
≤ 10 nM |  | OB(O)c1ccc2nc(Oc3cccc(Cl)c3)ccc2c1 [Compound 197]
10 to 100 nM |  | CCCCOc1ccc(B(O)O)c(-c2nnc(C)o2)c1 [Compound 272]
10 to 100 nM |  | O=C(CCc1nnc(-c2ccc(B(O)O)cc2)o1)N1CCCCC1 [Compound 239]
10 to 100 nM |  | CC(C)c1ccc(CN2CCC(Cc3nc4ccc(B(O)O)cc4o3)CC2)cc1 [Compound 301]
≤ 10 nM |  | OB(O)c1ccc2nc(-c3ccccc3)c(Br)n2c1 [Compound 317]
≤ 10 nM |  | OB(O)c1ccc([C@H]2OC[C@H](c3ccccc3)CO2)cc1 [Compound 175]
10 to 100 nM |  | CCCCOc1ccc(B(O)O)c(-c2nnc(CCC)o2)c1 [Compound 271]
